“Also recorded” adds a separate entry of the source. Values belong to the molecule of their own block, whether it stands above or below them.
Tests used:
[1] = molecular target: T1, TrkB (Mus musculus, UniProt P15209, F616A); test: TrkB inhibition in NTrk2 tmlDdg/J mutant mice; assay type: in vivo; details: 1NMPP1 25 μM injected in NTrk2 tmlDdg/J mutant mice; preliminary
T1 construct: from tissue; host or cells: NTrk2 tm1Ddg/J knock-in mutant mice (in vivo; intestine)

[2] = tested on: intestine of wild type mice; test: BDNF release in the intestine after oral administration; assay type: in vivo; details: oral administration 20 mg/kg, wild type mice (FIG. 6C)
[3] = tested on: rat enteric glia cell line EGC/PK060399 (ATCC CRL-2690); test: BDNF release from cultured enteric glia cell line (BDNF ELISA); assay type: cell-based
Method: FIG. 16 is a time response curve showing the BDNF secretion by enteric glial cells stimulated with 10 μM J11. The enteric glial cells (EGC/PK060399egfr, ATCC® CRL-2690™) were treated with 10 μM J11, and the conditional medium were harvested at 2, 6, 24 and 48 hours after treatment. The BDNF secretion was quantified using BDNF ELISA kit following the manufacturer's protocol.
(§1) The inventors next embarked on a strategy to identify novel therapeutic agents for NEC based upon their ability to enhance glial function and thus reduce TLR4 signaling and NEC. To do so, several libraries of FDA approved compounds were screened against the rat enteric glia cell line EGC/PK060399 (ATCC® CRL-2690™) for their ability to induce BDNF release, then the hits were validated by their ability to reduce NEC in mice. The lead hit, shown in FIG. 6A, is a C13H11NO5 compound with MW 261.23Da, herein named “J11”.
A dose-response curve was established for oxolinic acid (J11) in inducing BDNF release in the enteric glia cell line EGC/PK060399, and will be used evaluate a safety profile based upon its mean effective dose in mice. […] The BDNF secretion was quantified using BDNF ELISA kit following the manufacturer's protocol. The amount of BDNF was time dependent with the greatest secretion after 48 hours of exposure.

[4] = tested on: enteric glial cells (EGC/PK060399egfr, ATCC CRL-2690); test: BDNF mRNA expression by enteric glial cells (qPCR); assay type: cell-based, rat; details: 10 μM and 20 μM J11
Method: FIG. 17 depicts a time response curve showing the BDNF mRNA expression by enteric glial cells stimulated with 10 μM and 20 μM J11. The enteric glial cells (EGC/PK060399egfr, ATCC® CRL-2690™) were treated with 10 μM and 20 μM J11, and the enteric glial cells were harvested at 2, 6, 24 and 48 hours after treatment.
The enteric glial cells (EGC/PK060399egfr, ATCC® CRL-2690™) were treated with 10 μM and 20 μM J11, and the enteric glial cells were harvested at 2, 6, 24 and 48 hours after treatment. Total RNA was isolated using the RNeasy mini kit following the manufacturer's protocol. Complementary DNA was synthesized from 0.5 μg RNA using M-MLV reverse transcriptase. The qPCR analysis was performed with the Bio-Rad CFX96 Real-Time System (Biorad, Hercules, Calif.). The relative BDNF mRNA expression was normalized against the expression of housekeeping gene RPLO.

[5] = tested on: premature human intestine obtained after surgery for NEC; test: Human NEC intestine treated ex vivo with LPS; assay type: cell-based
Method: (§2) FIGS. 5A-5K. BDNF restrains TLR4 signaling in the intestinal epithelium. 5A) enterocytes. 5B) In wild-type mice, BDNF (1 μg/kg) LPS (5 mg/kg) injection for 6 hrs. 5C) qRT-PCR of human ileum freshly harvested from patient with NEC treated with LPS (25 μg/kg) for 6 hr. 5D-H) H&E images. 5I) BDNF ELISA. 5J-K) TNFα and NEC severity. *p<0.05 by ANOVA; 5-10 mice per experiment.
(§3) Fifth, wild-type mice with NEC show reduced levels of BDNF in the intestinal mucosa (FIG. 5H-I), consistent with the reduction in glia.
as §1

[6] = tested on: NEC in mice; test: Experimental NEC model in mice; assay type: in vivo
Method: In the inventors' NEC model, 7d old mice are gavaged with a combination of Similac Advance infant formula (Abbott Nutrition):Esbilac canine milk replacer (PetAb) in a 2:1 ratio at 50 μl/g every 3 hours, and subjected to 10 minutes of hypoxia (5% O2 95% N2 in a Billups-Rothenberg chamber) twice daily for four days, and then orally gavaged dysbiotic bacteria (1×10^5 cfu/ml) obtained from the stool of a patient with severe NEC (see our recent JCI paper for more model details^7). This protocol induces patchy intestinal necrosis and mucosal disruption which mimics human NEC in wild-type mice, but not in either TLR4^ΔIEC or TLR4^−/− littermates.

[7] = tested on: TLR4 signaling; test: LPS-mediated TLR4 signaling in the intestine of mice; assay type: in vivo
Method: as §2, §3, §1
(§4) The inventors sought to determine how BDNF inhibits TLR4 and thus attenuates NEC. BDNF is known to signal principally via its receptor, namely tropomyosin-related kinase B (TrkB), which the inventors now show to be present in the intestinal epithelium (FIG. 7). The inventors have now knocked down TrkB in IEC-6 enterocytes (FIG. 7A) using lentiviral delivery of TrkB shRNA.

[8] = tested on: TLR4 signaling; test: LPS-induced cytokine expression in cultured enterocytes or enteroids; assay type: cell-based, mice; details: BDNF 1 μg/ml
Text: as §3, §4

T1 sequence (P15209 32-821 F616A): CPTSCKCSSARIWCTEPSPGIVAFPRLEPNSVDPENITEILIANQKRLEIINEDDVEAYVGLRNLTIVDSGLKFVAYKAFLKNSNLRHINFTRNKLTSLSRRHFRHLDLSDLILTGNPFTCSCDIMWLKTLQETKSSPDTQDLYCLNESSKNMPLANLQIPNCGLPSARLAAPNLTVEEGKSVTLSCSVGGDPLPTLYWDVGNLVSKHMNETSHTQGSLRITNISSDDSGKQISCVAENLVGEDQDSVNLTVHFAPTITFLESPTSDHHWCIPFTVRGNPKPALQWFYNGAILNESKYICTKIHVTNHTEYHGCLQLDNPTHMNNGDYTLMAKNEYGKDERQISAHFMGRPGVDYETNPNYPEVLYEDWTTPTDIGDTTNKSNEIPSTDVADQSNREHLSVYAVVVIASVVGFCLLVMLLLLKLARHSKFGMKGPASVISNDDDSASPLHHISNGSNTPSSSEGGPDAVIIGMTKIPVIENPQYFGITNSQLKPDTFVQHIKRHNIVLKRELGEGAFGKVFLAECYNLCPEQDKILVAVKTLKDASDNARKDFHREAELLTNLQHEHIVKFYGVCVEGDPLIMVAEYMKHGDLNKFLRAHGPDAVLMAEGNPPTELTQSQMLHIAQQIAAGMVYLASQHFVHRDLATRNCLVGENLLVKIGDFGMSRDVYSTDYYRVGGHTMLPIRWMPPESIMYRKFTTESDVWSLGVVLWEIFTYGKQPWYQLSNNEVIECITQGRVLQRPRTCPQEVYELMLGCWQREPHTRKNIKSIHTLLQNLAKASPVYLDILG

TrkB inhibition [1]: preliminarily achieved TrkB inhibition
Molecule: CC(C)(C)n1nc(Cc2cccc3ccccc23)c2c(N)ncnc21 [1NMPP1]

Molecule: CCn1cc(C(=O)O)c(=O)c2cc3c(cc21)OCO3 [J11, oxolinic acid]
BDNF release in the intestine [2]: induced BDNF release
time of greatest BDNF secretion ([3]; 10 μM J11, conditional medium harvested at 2, 6, 24 and 48 hours, BDNF ELISA (FIG. 16)): 48 h
BDNF release from enteric glia ([3]; cultured enteric glia (FIG. 6B)): induced BDNF release
time of maximal BDNF mRNA expression ([4]; harvested at 2, 6, 24 and 48 hours): 24 h
BDNF mRNA expression ([4]; normalized to RPLO (FIG. 17)): stimulated
TLR4 signaling / inflammation in human NEC intestine ([5]; J11 10 μM, LPS 25 μg/ml, ex vivo): reduced TLR4 signaling; also recorded: reduces TLR4 signaling in human tissue; also recorded: reduces inflammation in human NEC tissue ex vivo
BDNF release in human NEC intestine ([5]; J11 10 μM, ex vivo): significantly induced BDNF release
NEC severity ([6]; administered orally 20 mg/kg/day to 7d old mice, 20 mg/kg/day): significantly reduced NEC severity; also recorded: prevents NEC in mice
LPS-mediated TLR4 signaling in the intestine ([7]; LPS 5 mg/kg, wild type mice (FIG. 6D)): inhibited LPS (5 mg/kg)-mediated TLR4 signaling

B1: BDNF: brain derived neurotrophic factor, enteric glia-derived peptide signalling through TrkB (protein, UniProt P23560 19-247, looked up)
Neurotrophic factor BDNF …: APMKEANIRGQGGLAYPGVRTHGTLESVNGPKAGSRGLTSLADTFEHVIEELLDEDQKVRPNEENNKDADLYTSRVMLSSQVPLEPPLLFLLEEYKNYLDAANMSMRVRRHSDPARRGELSVCDSISEWVTAADKKTAVDMSGGTVTVLEKVPVSKGQLKQYFYETKCNPMGYTKEGCRGIDKRHWNSQCRTTQSYVRALTMDSKKRIGWRFIRIDTSCVCTLTIKRGR
protection from LPS in ileum from NEC patients ([5]; ileum from NEC patients treated with BDNF (FIG. 5C)): protection was seen
NEC in mice lacking TrkB in the intestinal epithelium ([6]; TrkB-lacking intestinal epithelium, BDNF administration): not protected by BDNF administration
NEC severity in the glial-KO mouse model ([6]; glial-KO mice, BDNF 1 μg/kg (FIGS. 5H-K)): significantly reversed the severe NEC; also recorded: reversed by the administration of BDNF
NEC development ([6]; oral BDNF 1 μg/kg on each day of the model, histology and inflammatory cytokines): significantly protected against NEC development
TLR4-mediated expression of pro-inflammatory cytokines in the intestinal mucosa ([7]; BDNF 1 μg/kg injection, wild type mice, 6h after LPS injection (FIG. 5B)): significantly reduced TLR4-mediated expression of the pro-inflammatory cytokines
LPS-mediated TNF induction in mice deficient in TrkB ([7]; newborn mice, TrkB shRNA by oral gavage, BDNF 1 μg/kg (FIG. 7B)): no protection of LPS-mediated TNF induction by BDNF
intestinal TNFα in glia KO mouse ([7]; qRT-PCR, glia KO mouse (FIG. 3B)): reversed by BDNF
TLR4-induced cytokine expression ([8]; LPS 50 μg/ml, cultured enterocytes or enteroids from wild-type mice (FIG. 5A)): reduced TLR4 signaling
LPS induced IL-6 expression after TrkB knockdown ([8]; IEC-6 cells with TrkB shRNA, LPS 50 μg/ml (FIG. 7A)): knockdown of TrkB prevented BDNF (1 μg/ml)-mediated protection; also recorded: prevents BDNF protection of LPS TLR4-induced cytokine expression

From patent US20220079935A1, “COMPOUNDS AND TREATMENTS THAT ENHANCE ENTERIC NERVOUS SYSTEM FUNCTION” (The Johns Hopkins University, priority 2019, published 2022)
